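Assay format: 96-well plates, 48-hour exposure. GI50: concentration for 50% inhibition of growth.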 Active and inactive are the calls of the source. Rule as the data show it: active = GI50 up to about 1.1 µM and inactive = higher.
Columns and labels:
Test in all cases: DTP human tumour cell line panel, 48 h
[1] = test system: NCI-H23
[2] = test system: OVCAR-5
[3] = test system: IGROV-1
[4] = test system: HCT-15
[5] = test system: M14
[6] = test system: MOLT-4
[7] = test system: K562
[8] = test system: LOX IMVI
[9] = test system: SK-MEL-28
[10] = test system: EKVX
[11] = test system: TK-10
[12] = test system: A549
[13] = test system: OVCAR-4
[14] = test system: NCI/ADR-RES
[15] = test system: HOP-92
[16] = test system: SNB-19
[17] = test system: NCI-H226
[18] = test system: U-251
[19] = test system: HCC 2998
[20] = test system: SNB-75
[21] = test system: CCRF-CEM
[22] = test system: MDA-MB-231
[23] = test system: BT-549
[24] = test system: UACC-257
[25] = test system: HT-29
[26] = test system: ACHN
[27] = test system: SK-MEL-2
[28] = test system: SF-539
[29] = test system: SN12C
[30] = test system: SR
[31] = test system: NCI-H522
[32] = test system: DU-145
[33] = test system: OVCAR-8
[34] = test system: SW-620
[35] = test system: SF-295
[36] = test system: RPMI-8226
[37] = test system: CAKI-1
[38] = test system: HOP-62
[39] = test system: SK-MEL-5
[40] = test system: COLO 205
[41] = test system: MCF7
[42] = test system: HCT-116
[43] = test system: MDA-MB-435
[44] = test system: 786-0
[45] = test system: PC-3
[46] = test system: Malme-3M
[47] = test system: HL-60
[48] = test system: NCI-H460
[49] = test system: KM12
[50] = test system: Hs-578T
[51] = test system: A498
[52] = test system: T47D
[53] = test system: UACC-62
[54] = test system: UO-31
[55] = test system: SF-268
[56] = test system: SK-OV-3
[57] = test system: RXF 393

In the case of `Nc1cc(N2CCCC2)nc(=O)n1-c1ccccc1`, the GI50 [1] is reported as > 100 µM (inactive), the GI50 [2] is reported as > 100 µM (inactive) and the GI50 [3] is reported as > 100 µM (inactive). The GI50 [4] was over 100 µM, the GI50 [5] was > 100 µM (inactive) and the GI50 [6] was > 100 µM (inactive). For the same molecule, the GI50 [7] was > 100 µM (inactive), the GI50 [8] was > 100 µM (inactive) and the GI50 [9] was > 100 µM (inactive). The GI50 [10] was > 100 µM (inactive), the GI50 [11] was > 100 µM (inactive) and the GI50 [12] was > 100 µM (inactive). The GI50 [13] was > 100 µM (inactive), the GI50 [14] was > 100 µM (inactive) and the GI50 [15] was > 100 µM (inactive). The GI50 [16] was > 100 µM (inactive), the GI50 [17] was 54.2 µM (inactive) and the GI50 [18] was > 100 µM (inactive). For the same molecule, the GI50 [19] was 20.7 µM (inactive), the GI50 [20] was > 100 µM (inactive) and the GI50 [21] was > 100 µM (inactive). The GI50 [22] was > 100 µM (inactive), the GI50 [23] was > 100 µM (inactive) and the GI50 [24] was > 100 µM (inactive). The GI50 [25] was > 100 µM (inactive), the GI50 [26] was > 100 µM (inactive) and the GI50 [27] was > 100 µM (inactive). For the same molecule, the GI50 [28] was > 100 µM (inactive), the GI50 [29] was > 100 µM (inactive) and the GI50 [30] was > 100 µM (inactive). The GI50 [31] was > 100 µM (inactive), the GI50 [32] was > 100 µM (inactive) and the GI50 [33] was > 100 µM (inactive). The GI50 [34] was > 100 µM (inactive), the GI50 [35] was > 100 µM (inactive) and the GI50 [36] was > 100 µM (inactive). For the same molecule, the GI50 [37] was > 100 µM (inactive), the GI50 [38] was > 100 µM (inactive) and the GI50 [39] was > 100 µM (inactive). The GI50 [40] was > 100 µM (inactive), the GI50 [41] was > 100 µM (inactive) and the GI50 [42] was > 100 µM (inactive). For the same molecule, the GI50 [43] was > 100 µM (inactive), the GI50 [44] was > 100 µM (inactive) and the GI50 [45] was > 100 µM (inactive). The GI50 [46] was > 100 µM (inactive), the GI50 [47] was > 100 µM (inactive) and the GI50 [48] was > 100 µM (inactive). For the same molecule, the GI50 [49] was > 100 µM (inactive).
`CN(C)CCSC1=Nc2ccc(Cl)cc2C(c2ccccc2Cl)=NC1` was tested, and the GI50 [3] was 92.5 µM (inactive), the GI50 [50] was 21.4 µM (inactive) and the GI50 [6] was 31.4 µM (inactive). The GI50 [7] was 34.6 µM (inactive), the GI50 [13] was > 100 µM (inactive) and the GI50 [20] was 30.1 µM (inactive). For the same molecule, the GI50 [23] was 42.3 µM (inactive), the GI50 [27] was > 100 µM (inactive) and the GI50 [43] was 17.9 µM (inactive). The GI50 [47] was 30.3 µM (inactive).
`Cc1cn(CC2=NC3CCCCC3N2)c(=O)[nH]c1=O` (stereo unspecified) was tested, and the GI50 [1] was > 100 µM (inactive), the GI50 [2] was > 100 µM (inactive) and the GI50 [3] was > 100 µM (inactive). The GI50 [4] was over 100 µM, the GI50 [5] was > 100 µM (inactive) and the GI50 [50] was > 100 µM (inactive). The GI50 [6] was > 100 µM (inactive), the GI50 [7] was > 100 µM (inactive) and the GI50 [51] was > 100 µM (inactive). For the same molecule, the GI50 [8] was > 100 µM (inactive), the GI50 [9] was > 100 µM (inactive) and the GI50 [10] was > 100 µM (inactive). The GI50 [11] was > 100 µM (inactive), the GI50 [52] was > 100 µM (inactive) and the GI50 [12] was > 100 µM (inactive). For the same molecule, the GI50 [14] was > 100 µM (inactive), the GI50 [15] was > 100 µM (inactive) and the GI50 [16] was > 100 µM (inactive). For the same molecule, the GI50 [17] was > 100 µM (inactive), the GI50 [18] was > 100 µM (inactive) and the GI50 [19] was > 100 µM (inactive). The GI50 [20] was > 100 µM (inactive), the GI50 [21] was > 100 µM (inactive) and the GI50 [53] was > 100 µM (inactive). For the same molecule, the GI50 [54] was > 100 µM (inactive), the GI50 [22] was > 100 µM (inactive) and the GI50 [23] was > 100 µM (inactive). For the same molecule, the GI50 [24] was > 100 µM (inactive), the GI50 [25] was > 100 µM (inactive) and the GI50 [55] was > 100 µM (inactive). The GI50 [26] was > 100 µM (inactive), the GI50 [27] was > 100 µM (inactive) and the GI50 [29] was > 100 µM (inactive). For the same molecule, the GI50 [30] was > 100 µM (inactive), the GI50 [31] was > 100 µM (inactive) and the GI50 [32] was > 100 µM (inactive). For the same molecule, the GI50 [56] was > 100 µM (inactive), the GI50 [33] was > 100 µM (inactive) and the GI50 [34] was > 100 µM (inactive). The GI50 [35] was > 100 µM (inactive), the GI50 [36] was > 100 µM (inactive) and the GI50 [38] was > 100 µM (inactive). The GI50 [39] was > 100 µM (inactive), the GI50 [40] was > 100 µM (inactive) and the GI50 [41] was > 100 µM (inactive). The GI50 [42] was > 100 µM (inactive), the GI50 [57] was > 100 µM (inactive) and the GI50 [44] was > 100 µM (inactive). The GI50 [45] was > 100 µM (inactive), the GI50 [46] was > 100 µM (inactive) and the GI50 [47] was > 100 µM (inactive). The GI50 [48] was > 100 µM (inactive).
